Data set [1] in a line: LD50 / acute toxicity, intraperitoneal route. In kind it is in vivo. The settings on record: i.p.; for Toxicity (Gleason): Gleason class in words, classes not defined.
The test system of a further data set is vertebral arteria. In words: Cerebral vasodilating activity: hematic flow at the vertebral arteria after i.v. administration. In kind it is in vivo. The conditions noted are these: i.v. (femoral vein), 5 mg/kg of vincamine/apovincamine, anesthetized dog, 4 animals per compound. How it is done:
(§1) For the compounds of the present invention a number of pharmacological and pharmacokinetic tests have been carried out. […] As regards the pharmacological and pharmacodynamic activity, it has been studied on the percent variations of the hematic flow, as recorded at the vertebral arteria in the dog after administration of the tested compounds. As regards the pharmacokinetic tests, the compounds were administered per oral route to the Wistar rat, and the hematic levels at different times from the administration were measured.
The cerebral vasodilating activity was studied in the anestetized dog, by measuring, by means of Statham periarterial electromagnetic flowmeters, the hematic flow at the level of the […] which, in such animal species, constitutes the greatest blood supply to the brain.
The resuls are reported in the TABLE 2 (last column) as the percent variations of the flow measured at the level of the ledt vertebral arteria after the i.v. administration of the several compounds to be tested to groups of 4 animals for each compound. The results also confirm that the compounds of the invention are all endowed with a vasodilating activity at the level of the cerebral circulus, such an action being, for some compounds, much more remarkable than that of vincamine and apovincamine.

The nature of data set [2]: Hematic levels at different times after oral administration (absorption). In kind it is in vivo, Wistar rat. The conditions noted are these: 100 mg/kg expressed as vincamine/apovincamine, 5% carboxymethyl cellulose suspension, 100 mg/kg; for Tmax: rat, blood, po, read-out: Max. conc. time (converted). Here is the method:
as §1
For the evaluation of the absorption, all the compounds have been orally administered at the dosage of 100 mg/kg, expressed as vincamine and apovincamine, in form of a suspension in a 5% carboxymethyl cellulose solution.
The absorption was determined by evaulating the hematic levels at the following times (minutes) : 0, 30, 120, 240, 480, 10 hours and 12 hours, in order also to assess the time from the administration (max conc.time) the maximum absorption occurred.
The vincamine and apovincamine concentrations were assessed by chromatographic method.
For the evaluation of the prolonged action of the salts and of the adducts of vincamine and apovincamine the following criterium was adopted; as derivatives having a long-acting effect, there are considered those which, 120 minutes after the administration, show hematic levels higher than those obtained with vincamine and apovincamine.

Another data set in a line: Solubility. Format: physicochemical. The settings on record: qualitative; for solubility in alcohol: alcohol (ethyl alcohol).

The text below walks through data of patent publication US4122179A, “Acid addition salts of vincamine and apovincamine” (priority 1976, dated 1978).

Where a name gives a salt, the structure may show the parent alone.

`CC[C@@]12C=C(C(=O)OC)n3c4c(c5ccccc53)CCN(CCC1)[C@H]42` [Apovincamine, apovincamine]: in data set [1], the LD50 (as a rule, the dose at which mortality reaches 50%) came to 2000 mg/kg and the “Toxicity (Gleason)” value was “negligible”. Further, the “% increase (percent variation of hematic flow, left vertebral arteria)” value in the data set on vertebral arteria (5 mg/kg) came to 25.6%. The same compound yielded a Max. conc. time in data set [2] of 60 min.
With `CC[C@]12CCCN3CCc4c(n(c5ccccc45)[C@@](O)(C(=O)OC)C1)[C@@H]32` [Example 4.c, glucose-6-phosphate acid salt], in data set [1], the 50% lethal dose (LD50) is recorded as 800 mg/kg and the “Toxicity (Gleason)” value is “modest”. Further, the “% increase (percent variation of hematic flow, left vertebral arteria)” value in the data set on vertebral arteria (5 mg/kg) was found to be 28.2%. The compound also yielded a Max. conc. time in data set [2] of 240 min.
As to `CC[C@@]12C=C(C(=O)OC)n3c4c(c5ccccc53)CCN(CCC1)[C@H]42` [Example 12.b, Apovincamine furoate], the “% increase (percent variation of hematic flow, left vertebral arteria)” value with vertebral arteria (5 mg/kg) was 24.0%. Also, the Max. conc. time in data set [2] was 240 min. In the data set “Solubility”, the solubility in alcohol entry is on record as “soluble” and the solubility in water result is reported as “insoluble”.
For `CC[C@@]12C=C(C(=O)OC)n3c4c(c5ccccc53)CCN(CCC1)[C@H]42` [Example 13.b, Apovincamine D(+)-camphorsulfonate] the same measures were 37.4%, 120 min, “soluble” and “soluble”.
With `CC[C@]12CCCN3CCc4c(n(c5ccccc45)[C@@](O)(C(=O)OC)C1)[C@@H]32` [Example 15.a, nicotinate], in data set [1], the LD50 was 900 mg/kg and the “Toxicity (Gleason)” value is recorded as “modest”. The “% increase (percent variation of hematic flow, left vertebral arteria)” value in the data set with vertebral arteria (5 mg/kg) is 21.9%. The Max. conc. time in data set [2] amounted to 60 min.
Turning to `CC[C@]12CCC[N+]3(C)CCc4c(n(c5ccccc45)[C@@](O)(C(=O)OC)C1)[C@H]23` (stereo partly drawn) [Example 17.a, Vincamine methylsulfate], the “% increase (percent variation of hematic flow, left vertebral arteria)” value in the data set with vertebral arteria was 28.4%. Further, the Tmax in data set [2] was 1 h. Moreover, in the data set “Solubility”, the solubility in alcohol result is listed as “soluble” and the solubility in water result is “soluble”.
`CC[C@@]12C=C(C(=O)OC)n3c4c(c5ccccc53)CC[N+](C)(CCC1)[C@H]42` (stereo partly drawn) [Example 17.b, Apovincamine methylsulfate]: the “% increase (percent variation of hematic flow, left vertebral arteria)” value with vertebral arteria worked out at 29.7%. Moreover, the Tmax in data set [2] is 1 h. Further, in the data set “Solubility”, the solubility in alcohol result is reported as “poorly soluble” and the solubility in water entry is “soluble”.
For `CC[C@]12CCCN3CCc4c(n(c5ccccc45)[C@@](O)(C(=O)OC)C1)[C@@H]32` [Vincamine HCl, reference compound], in data set [1] (HCl), the “Toxicity (Gleason)” value was “modest” and the LD50 was 800 mg/kg. Besides, the “% increase (percent variation of hematic flow, left vertebral arteria)” value in the data set with vertebral arteria (HCl, 5 mg/kg) stood at 24.1%. Moreover, the Max. conc. time in data set [2] (HCl) was determined as 20 min.
With glucose-6-phosphate [Example 3.c], in data set [1], the LD50 is on record as 1000 mg/kg and the “Toxicity (Gleason)” value is recorded as “light”. For the same compound, the “% increase (percent variation of hematic flow, left vertebral arteria)” value in the data set with vertebral arteria (5 mg/kg) was found to be 28.4%. The compound also came in with a Max. conc. time in data set [2] of 240 min.
As to glucose-6-phosphate [Example 3.d], in data set [1], the LD50 is given as 900 mg/kg and the “Toxicity (Gleason)” value is given as “modest”. In addition, the “% increase (percent variation of hematic flow, left vertebral arteria)” value in the data set on vertebral arteria (5 mg/kg) was determined as 28.8%. The Max. conc. time in data set [2] stood at 120 min.
Regarding “glucose-6-phosphate disodium [Example 1.c]”, in data set [1], the LD50 turned out to be 2000 mg/kg and the “Toxicity (Gleason)” value is listed as “negligible”. For the same compound, the “% increase (percent variation of hematic flow, left vertebral arteria)” value with vertebral arteria (disodium, 5 mg/kg) amounted to 26.3%. This compound displayed a Max. conc. time in data set [2] (disodium) of 480 min.
For “glucose-6-phosphate disodium [Example 1.d]” the same measures were 2000 mg/kg, “negligible”, 29.3% and 120 min.
